Reference: ChEMBL document CHEMBL3885881, “DrugMatrix”

Species: Rattus norvegicus
Assay: DrugMatrix - Regimen: Daily Repeat
Assay type: toxicity, organism-based, Sprague-Dawley
Design: regimen Daily Repeat, gender Male, age 6-8 weeks
Conditions: in vivo, po, route oral GAVAGE, vehicle 100 % WATER; for ABSOLUTE BASOPHIL / ABSOLUTE EOSINOPHIL / ABSOLUTE LYMPHOCYTE / ABSOLUTE MONOCYTE / ABSOLUTE SEGMENTED NEUTROPHIL / BASOPHIL / EOSINOPHIL / ERYTHROCYTE COUNT / HEMATOCRIT / HEMOGLOBIN / LEUKOCYTE COUNT / LYMPHOCYTE / MEAN CORPUSCULAR HEMOGLOBIN / MEAN CORPUSCULAR HEMOGLOBIN CONCENTRATION / MEAN CORPUSCULAR VOLUME / MONOCYTE / NEUTROPHIL / NUCLEATED RED BLOOD CELLS / PLATELET COUNT: tissue Blood; for ALANINE AMINOTRANSFERASE / ALBUMIN / ALKALINE PHOSPHATASE / ASPARTATE AMINOTRANSFERASE / BLOOD UREA NITROGEN / CARBON DIOXIDE / CHLORIDE / CHOLESTEROL / CREATINE PHOSPHOKINASE / CREATININE / GLUCOSE / LACTATE DEHYDROGENASE / LIPASE / PHOSPHORUS / POTASSIUM / SODIUM / TOTAL BILIRUBIN / TOTAL PROTEIN / URIC ACID: tissue Plasma
[1] = 44 mg/kg, 72 h, dose level Low, time 3 day
[2] = 44 mg/kg, 120 h, dose level Low, time 5 day
[3] = 0 mg/kg, 72 h, dose level Control, time 3 day
[4] = 0 mg/kg, 120 h, dose level Control, time 5 day
[5] = 58 mg/kg, 72 h, dose level Low, time 3 day
[6] = 58 mg/kg, 120 h, dose level Low, time 5 day

Cn1c(=O)c2c(ncn2CC2OCCO2)n(C)c1=O [DOXOFYLLINE]
ABSOLUTE BASOPHIL [1]: 0 CELLS/uL | ABSOLUTE EOSINOPHIL [1]: 159 CELLS/uL | ABSOLUTE LYMPHOCYTE [1]: 15168.33 CELLS/uL | ABSOLUTE MONOCYTE [1]: 106 CELLS/uL | ABSOLUTE SEGMENTED NEUTROPHIL [1]: 1466.67 CELLS/uL | BASOPHIL [1]: 0% | EOSINOPHIL [1]: 1% | ERYTHROCYTE COUNT [1]: 5.65 x10E6/uL | HEMATOCRIT [1]: 36.33% | HEMOGLOBIN [1]: 13.93 G/DL | LEUKOCYTE COUNT [1]: 16.9 x10E3/uL | LYMPHOCYTE [1]: 89.67% | MEAN CORPUSCULAR HEMOGLOBIN [1]: 24.67 pg | MEAN CORPUSCULAR HEMOGLOBIN CONCENTRATION [1]: 38.37 G/DL | MEAN CORPUSCULAR VOLUME [1]: 64.23 fL | MONOCYTE [1]: 0.67% | NEUTROPHIL [1]: 8.67% | NUCLEATED RED BLOOD CELLS [1]: 0 /100WBC | PLATELET COUNT [1]: 1263 x10E3/uL | ALANINE AMINOTRANSFERASE [1]: 51.33 u/L | ALBUMIN [1]: 4.3 G/DL | ALKALINE PHOSPHATASE [1]: 393.67 u/L | ASPARTATE AMINOTRANSFERASE [1]: 90.67 u/L | BLOOD UREA NITROGEN [1]: 15.67 mg/dL | CARBON DIOXIDE [1]: 27 mmol/L | CHLORIDE [1]: 100.33 MEQ/L | CHOLESTEROL [1]: 80.67 mg/dL | CREATINE PHOSPHOKINASE [1]: 250.67 u/L | CREATININE [1]: 0.19 mg/dL | GLUCOSE [1]: 159.33 mg/dL | LACTATE DEHYDROGENASE [1]: 324 u/L | LIPASE [1]: 9.67 u/L | PHOSPHORUS [1]: 14.4 mg/dL | POTASSIUM [1]: 7.21 MEQ/L | SODIUM [1]: 145.63 MEQ/L | TOTAL BILIRUBIN [1]: 0.17 mg/dL | TOTAL PROTEIN [1]: 5.9 G/DL | URIC ACID [1]: 1.83 mg/dL | ABSOLUTE BASOPHIL [2]: 0 CELLS/uL | ABSOLUTE EOSINOPHIL [2]: 0 CELLS/uL | ABSOLUTE LYMPHOCYTE [2]: 14176.33 CELLS/uL | ABSOLUTE MONOCYTE [2]: 62.33 CELLS/uL | ABSOLUTE SEGMENTED NEUTROPHIL [2]: 1228 CELLS/uL | BASOPHIL [2]: 0% | EOSINOPHIL [2]: 0% | ERYTHROCYTE COUNT [2]: 5.56 x10E6/uL | HEMATOCRIT [2]: 36.17% | HEMOGLOBIN [2]: 14.13 G/DL | LEUKOCYTE COUNT [2]: 15.47 x10E3/uL | LYMPHOCYTE [2]: 92.33% | MEAN CORPUSCULAR HEMOGLOBIN [2]: 25.5 pg | MEAN CORPUSCULAR HEMOGLOBIN CONCENTRATION [2]: 39.1 G/DL | MEAN CORPUSCULAR VOLUME [2]: 65.23 fL | MONOCYTE [2]: 0.33% | NEUTROPHIL [2]: 7.33% | NUCLEATED RED BLOOD CELLS [2]: 0 /100WBC | PLATELET COUNT [2]: 1347.67 x10E3/uL | ALANINE AMINOTRANSFERASE [2]: 51 u/L | ALBUMIN [2]: 4.17 G/DL | ALKALINE PHOSPHATASE [2]: 318.33 u/L | ASPARTATE AMINOTRANSFERASE [2]: 80 u/L | BLOOD UREA NITROGEN [2]: 17.33 mg/dL | CARBON DIOXIDE [2]: 29 mmol/L | CHLORIDE [2]: 100 MEQ/L | CHOLESTEROL [2]: 75.33 mg/dL | CREATINE PHOSPHOKINASE [2]: 240 u/L | CREATININE [2]: 0.17 mg/dL | GLUCOSE [2]: 165.33 mg/dL | LACTATE DEHYDROGENASE [2]: 290 u/L | LIPASE [2]: 9.67 u/L | PHOSPHORUS [2]: 12.97 mg/dL | POTASSIUM [2]: 6.07 MEQ/L | SODIUM [2]: 146.03 MEQ/L | TOTAL BILIRUBIN [2]: 0.17 mg/dL | TOTAL PROTEIN [2]: 6.07 G/DL | URIC ACID [2]: 1.5 mg/dL

COc1cc2ncnc(Nc3ccc(F)c(Cl)c3)c2cc1OCCCN1CCOCC1 [GEFITINIB]
HEMATOCRIT [3]: 42.62% | HEMOGLOBIN [3]: 13.07 G/DL | LEUKOCYTE COUNT [3]: 13.95 x10E3/uL | MEAN CORPUSCULAR HEMOGLOBIN [3]: 21.47 pg | MEAN CORPUSCULAR HEMOGLOBIN CONCENTRATION [3]: 30.62 G/DL | MEAN CORPUSCULAR VOLUME [3]: 70.05 fL | ALANINE AMINOTRANSFERASE [3]: 47.67 u/L | ALBUMIN [3]: 3.8 G/DL | ALKALINE PHOSPHATASE [3]: 369 u/L | ASPARTATE AMINOTRANSFERASE [3]: 86.17 u/L | BLOOD UREA NITROGEN [3]: 16.33 mg/dL | CARBON DIOXIDE [3]: 37.33 mmol/L | CHLORIDE [3]: 104.83 MEQ/L | CHOLESTEROL [3]: 79.83 mg/dL | CREATINE PHOSPHOKINASE [3]: 392.83 u/L | CREATININE [3]: 0.68 mg/dL | LACTATE DEHYDROGENASE [3]: 426.17 u/L | LIPASE [3]: 11.67 u/L | PHOSPHORUS [3]: 11 mg/dL | TOTAL BILIRUBIN [3]: 0.55 mg/dL | TOTAL PROTEIN [3]: 6.32 G/DL | URIC ACID [3]: 0.0167 mg/dL | HEMATOCRIT [4]: 46.82% | HEMOGLOBIN [4]: 14.23 G/DL | LEUKOCYTE COUNT [4]: 13.43 x10E3/uL | MEAN CORPUSCULAR HEMOGLOBIN [4]: 20.55 pg | MEAN CORPUSCULAR HEMOGLOBIN CONCENTRATION [4]: 30.38 G/DL | MEAN CORPUSCULAR VOLUME [4]: 67.62 fL | ALANINE AMINOTRANSFERASE [4]: 44.67 u/L | ALBUMIN [4]: 3.8 G/DL | ALKALINE PHOSPHATASE [4]: 417.83 u/L | ASPARTATE AMINOTRANSFERASE [4]: 83 u/L | BLOOD UREA NITROGEN [4]: 15.33 mg/dL | CARBON DIOXIDE [4]: 38.83 mmol/L | CHLORIDE [4]: 98.17 MEQ/L | CHOLESTEROL [4]: 66.83 mg/dL | CREATINE PHOSPHOKINASE [4]: 383.17 u/L | CREATININE [4]: 0.72 mg/dL | LACTATE DEHYDROGENASE [4]: 519.67 u/L | LIPASE [4]: 4.83 u/L | PHOSPHORUS [4]: 11.07 mg/dL | TOTAL BILIRUBIN [4]: 0.55 mg/dL | TOTAL PROTEIN [4]: 6.3 G/DL | URIC ACID [4]: 0.0833 mg/dL | HEMATOCRIT [5]: 45.2% | HEMOGLOBIN [5]: 13.93 G/DL | LEUKOCYTE COUNT [5]: 13.22 x10E3/uL | MEAN CORPUSCULAR HEMOGLOBIN [5]: 21.17 pg | MEAN CORPUSCULAR HEMOGLOBIN CONCENTRATION [5]: 30.87 G/DL | MEAN CORPUSCULAR VOLUME [5]: 68.57 fL | ALANINE AMINOTRANSFERASE [5]: 47.67 u/L | ALBUMIN [5]: 3.63 G/DL | ALKALINE PHOSPHATASE [5]: 348 u/L | ASPARTATE AMINOTRANSFERASE [5]: 93.67 u/L | BLOOD UREA NITROGEN [5]: 18 mg/dL | CARBON DIOXIDE [5]: 36.33 mmol/L | CHLORIDE [5]: 108 MEQ/L | CHOLESTEROL [5]: 79.67 mg/dL | CREATINE PHOSPHOKINASE [5]: 307.67 u/L | CREATININE [5]: 0.7 mg/dL | LACTATE DEHYDROGENASE [5]: 373.67 u/L | LIPASE [5]: 10.67 u/L | PHOSPHORUS [5]: 10.37 mg/dL | TOTAL BILIRUBIN [5]: 0.37 mg/dL | TOTAL PROTEIN [5]: 5.97 G/DL | URIC ACID [5]: 0 mg/dL | HEMATOCRIT [6]: 46.33% | HEMOGLOBIN [6]: 14.27 G/DL | LEUKOCYTE COUNT [6]: 14.5 x10E3/uL | MEAN CORPUSCULAR HEMOGLOBIN [6]: 20.73 pg | MEAN CORPUSCULAR HEMOGLOBIN CONCENTRATION [6]: 30.83 G/DL | MEAN CORPUSCULAR VOLUME [6]: 67.23 fL | ALANINE AMINOTRANSFERASE [6]: 52.67 u/L | ALBUMIN [6]: 3.6 G/DL | ALKALINE PHOSPHATASE [6]: 361.67 u/L | ASPARTATE AMINOTRANSFERASE [6]: 94 u/L | BLOOD UREA NITROGEN [6]: 17.33 mg/dL | CARBON DIOXIDE [6]: 35.67 mmol/L | CHLORIDE [6]: 100.33 MEQ/L | CHOLESTEROL [6]: 85.33 mg/dL | CREATINE PHOSPHOKINASE [6]: 299.67 u/L | CREATININE [6]: 0.7 mg/dL | LACTATE DEHYDROGENASE [6]: 423.67 u/L | LIPASE [6]: 5.33 u/L | PHOSPHORUS [6]: 11.87 mg/dL | TOTAL BILIRUBIN [6]: 0.4 mg/dL | TOTAL PROTEIN [6]: 6.07 G/DL | URIC ACID [6]: 0.0333 mg/dL
